The values that follow come from US8097733B2, “Pyrazole derivatives as 5-LO-inhibitors” (Pfizer Inc., priority 2007, dated 2012).

The test system of assay [1] is human whole blood (leukotriene and prostaglandin levels). The assay can be described thus: Eicosanoid production from human whole blood. The assay is classed as cell-based. The following applies: human whole blood stimulated with calcium ionophore A23187 and arachidonic acid; ELISA. As to the method: Human whole blood is collected in 10 ml heparin tubes (Vacutainer, Becton Dickenson). Collected blood is pooled and 80 μL is dispensed into each well of 384 well polypropylene plates. A PlateMate is used to add 2 μL of compound solution in DMSO to the 80 μL of blood in the polypropylene plates. The plate, with blood and compound added, is incubated at room temperature for 10 minutes. 2 μL of a calcimycin (800 ng/ml) (A23187 C-7522, Sigma) and arachidonic acid (30 μM) (NU-Chek PREP, INC. S-1133) solution in 60% ethanol is then added to the blood using a Micromultidrop. The plates are then incubated at 37° C. in a shallow water bath for 15 minutes. Plates are then spun at 800 g for 10 minutes at 4° C. Supernatant is removed and assayed by Elisa (Caymen Chemical).
Eicosanoid Production from Human Whole Blood:
Human whole blood was collected from healthy or asthmatic human donors in 10 ml heparinized tubes (Vacutainer tubes; Becton Dickenson, Franklin Lakes, N.J.). Collected blood was pooled and 80 μL was dispensed into each well of 384 well polypropylene plates using a Multi-prop™ 384-well dispenser (Titertek, Huntsville, Ala.). Varying concentrations of compounds were dissolved in DMSO then 2 μL/well was added to the blood using a PlateMate Plus™ automated pipetting station (Matrix Technologies, Hudson, N.H.). The compounds were preincubated with the blood at room temperature for 10 minutes followed by stimulation with 40 μM calcium ionophore (A23187, Sigma Chemical Co, St. Louis, Mo., Cat. # C-7522) and 30 μM arachidonic acid (S-1133, NU-Chek PREP, Inc., Elysian, MN, Cat. # S-1133) dissolved in 60% ethanol. After 15 min incubation at 37° C. in a shallow water bath, the blood was centrifuged at 8009 for 10 minutes at 4° C., the supernatants collected, and leukotriene and prostaglandin levels measured by ELISA according to the manufacturer's directions (Cayman Chemical Company, Ann Arbor, Mich.). The assay was performed at a final concentration of 2.5% DMSO.
(In general: ELISA stands for enzyme-linked immunosorbent assay.)

The target in assay [2] is T1, recombinant human 5-LOX (Homo sapiens, UniProt P09917).
T1 sequence (P09917 1-674): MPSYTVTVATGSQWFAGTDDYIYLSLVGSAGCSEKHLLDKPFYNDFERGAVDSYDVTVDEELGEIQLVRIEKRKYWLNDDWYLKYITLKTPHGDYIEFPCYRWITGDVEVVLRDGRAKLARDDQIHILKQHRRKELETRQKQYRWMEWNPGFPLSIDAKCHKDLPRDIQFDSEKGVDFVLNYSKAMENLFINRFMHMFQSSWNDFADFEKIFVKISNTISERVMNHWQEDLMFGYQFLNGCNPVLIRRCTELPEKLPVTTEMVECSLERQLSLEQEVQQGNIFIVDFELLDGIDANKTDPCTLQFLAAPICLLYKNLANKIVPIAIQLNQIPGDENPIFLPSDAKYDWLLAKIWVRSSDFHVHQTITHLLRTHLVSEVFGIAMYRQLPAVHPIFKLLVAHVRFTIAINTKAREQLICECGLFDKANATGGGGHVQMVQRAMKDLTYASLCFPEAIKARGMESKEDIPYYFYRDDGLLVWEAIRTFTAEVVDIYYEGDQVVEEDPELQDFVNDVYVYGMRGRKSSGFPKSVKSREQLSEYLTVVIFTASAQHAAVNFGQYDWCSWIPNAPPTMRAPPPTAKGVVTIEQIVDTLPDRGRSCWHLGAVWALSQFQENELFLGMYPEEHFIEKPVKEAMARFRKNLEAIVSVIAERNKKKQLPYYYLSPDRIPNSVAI
The assay can be described thus: Fluorescence Intensity 5-LOX Enzyme Assay. The settings on record: crude lysate of recombinant human 5-LOX; highest inhibitor concentration tested typically 25 μM. It is filed as biochemical. An excerpt: Bio Data Assays for Allergic and Non Allergic Airways Diseases Fluorescence Intensity 5-LOX Enzyme Assay
The enzyme assay is based on the oxidation of the non-fluorescent compound 2′7′-dichlorodihydrofluorescein diacetate (H2DCFDA) to the fluorescent 2′,7′-dichlorofluorescein by 5-LOX in an arachidonic acid-dependent reaction. Ester cleavage of the acetate groups of the substrate H2DCFDA must occur prior to oxidation. This is achieved through use of a crude cell lysate preparation of recombinant human 5-LOX. The enzyme assay ([…]) contained 50 mM Tris (pH 7.5), 2 mM CaCl2, 2 mM EDTA, 3 μM arachidonic acid (Nu-Chek Prep; #S-1133), 10 μM ATP, 10 μM H2DCFDA (Invitrogen; #D399), inhibitor (varying concentration) and recombinant human 5-LOX enzyme (1.25 μL crude lysate per well).
Inhibitors (dissolved in DMSO) were plated into a 384-well assay plate (Corning #3654) at 1 μL followed by a 20 μL addition of a solution containing 5-LO enzyme and H2DCFDA. Enzyme and H2DCFDA were pre-incubated for 5 min to allow time for acetate group cleavage of the dye prior to addition to the assay plate. After a 10 min pre-incubation of inhibitor and enzyme/dye mix, the assay was initiated by the addition of a substrate solution containing arachidonic acid and ATP. The enzymatic reaction was run for 20 min at room temperature and terminated by the addition of 40 μL of acetonitrile. Assay plates were read in a plate reader using standard wavelengths for fluorescein. IC50s of inhibitors were calculated using a 4-parameter fit using 7 inhibitor concentrations in duplicate with 3-fold serial dilutions. Controls on each plate included no inhibitor (zero percent effect) and 25 μM C J-13610 (one hundred percent effect). The highest inhibitor concentration tested was typically 25 μM. The final DMSO concentration in the assay was 2.5%.

The structures appear in SMILES notation.

The term IC50 denotes the concentration at which inhibition is half-maximal.

Consider `NC(=O)C1(c2cccc(Sc3ccc(-c4[nH]ncc4Br)cc3)c2)CCOCC1` [Example 60, 4-(3-{[4-(4-bromo-1H-pyrazol-5-yl)phenyl]thio}phenyl)tetrahydro-2H-pyran-4-carboxamide], for which the IC50 in assay [1] was 1400 nM; in assay [2], 608 nM.
The like results for `Cn1nccc1Oc1ncc(Sc2cccc(C3(C(N)=O)CCOCC3)c2F)cc1Cl` [Example 61, 4-[3-({5-chloro-6-[(1-methyl-1H-pyrazol-5-yl)oxy]pyridin-3-yl}thio)-2-fluorophenyl]tetrahydro-2H-pyran-4-carboxamide] were, in that order, 2160 nM and 327 nM.
Take `Cn1nccc1C(=O)c1ccc(Sc2cccc(C3(C#N)CCOCC3)c2)cc1` [Example 62, 4-[3-({4-[(1-methyl-1H-pyrazol-5-yl)carbonyl]phenyl}thio)phenyl]tetrahydro-2H-pyran-4-carbonitrile]: the figures for the IC50 in assay [1] and in assay [2] were 1490 nM and 2160 nM, respectively.
The like results for `Cn1nccc1C(=O)c1cc(F)c(Sc2cccc(C3(C(N)=O)CCOCC3)c2)cc1F` [Example 63, 4-[3-({2,5-difluoro-4-[(1-methyl-1H-pyrazol-5-yl)carbonyl]phenyl}thio)phenyl]tetrahydro-2H-pyran-4-carboxamide] were, in that order, 1260 nM and 256 nM.
On the same counts, the results for `CNC(=O)C1(c2cccc(Sc3ccc(C(=O)c4ccnn4C)c(OC)c3)c2)CCOCC1` [Example 64, 4-[3-({3-methoxy-4-[(1-methyl-1H-pyrazol-5-yl)carbonyl]phenyl}thio)phenyl]-N-methyltetrahydro-2H-pyran-4-carboxamide] are 8270 nM and 470 nM.
`CNC(=O)C1(c2cccc(Sc3ccc(C(=O)c4ccnn4C)c(Cl)c3)c2)CCOCC1` [Example 65, 4-[3-({3-chloro-4-[(1-methyl-1H-pyrazol-5-yl)carbonyl]phenyl}thio)phenyl]-N-methyltetrahydro-2H-pyran-4-carboxamide]: the half-maximal inhibitory concentration (IC50) came out at 1060 nM in assay [1] and 81.3 nM in assay [2].
On the same counts, the results for `Cn1nccc1C(=O)c1ccc(Sc2cccc(C3(C(N)=O)CCOCC3)c2)c(F)c1` [Example 67, 4-[3-({2-fluoro-4-[(1-methyl-1H-pyrazol-5-yl)carbonyl]phenyl}thio)phenyl]tetrahydro-2H-pyran-4-carboxamide] are 1210 nM and 209 nM.
The like results for `Cn1nccc1C(=O)c1ccc(Sc2cccc(C3(C(N)=O)CCOCC3)c2)c(Cl)c1` [Example 68, 4-[3-({2-chloro-4-[(1-methyl-1H-pyrazol-5-yl)carbonyl]phenyl}thio)phenyl]tetrahydro-2H-pyran-4-carboxamide] were, in that order, 2480 nM and 803 nM.
In the case of `Cn1nccc1C(=O)c1ccc(Sc2cccc(C3(C(N)=O)CCOCC3)c2)cn1` [Example 69, 4-[3-({6-[(1-methyl-1H-pyrazol-5-yl)carbonyl]pyridin-3-yl}thio)phenyl]tetrahydro-2H-pyran-4-carboxamide], the IC50 in assay [1] worked out at 3350 nM; in assay [2], 1590 nM.
On the same counts, the results for `COc1cc(C(=O)c2ccnn2C)ccc1Sc1cccc(C2(C(N)=O)CCOCC2)c1` [Example 70, 4-[3-({2-methoxy-4-[(1-methyl-1H-pyrazol-5-yl)carbonyl]phenyl}thio)phenyl]tetrahydro-2H-pyran-4-carboxamide] are 3130 nM and 740 nM.
The like results for `COc1cc(Sc2cccc(C3(C(N)=O)CCOCC3)c2)ccc1C(=O)c1ccnn1C` [Example 71, 4-[3-({3-methoxy-4-[(1-methyl-1H-pyrazol-5-yl)carbonyl]phenyl}thio)phenyl]tetrahydro-2H-pyran-4-carboxamide] were, in that order, 1980 nM and 430 nM.
The like results for `CNC(=O)C1(c2cccc(Sc3ccc(C(=O)c4ccnn4C)cc3)c2)CCOCC1` [Example 72, N-methyl-4-[3-({4-[(1-methyl-1H-pyrazol-5-yl)carbonyl]phenyl}thio)phenyl]tetrahydro-2H-pyran-4-carboxamide] were, in that order, 6360 nM and 109 nM.
With `C[C@H]1C[C@@](C(N)=O)(c2cccc(Sc3ccc(-c4c(Br)cnn4C)cc3)c2F)CCO1` [Example 73, (2S,4R)-4-(3-{[4-(4-bromo-1-methyl-1H-pyrazol-5-yl)phenyl]thio}-2-fluorophenyl)-2-methyltetrahydro-2H-pyran-4-carboxamide], the IC50 in assay [1] is 672 nM; in assay [2], 13.4 nM.
The like results for `Cn1ncc(Br)c1-c1ccc(Sc2cccc(C3(C(N)=O)CCOCC3)c2)cc1` [Example 76, 4-(3-{[4-(4-bromo-1-methyl-1H-pyrazol-5-yl)phenyl]thio}phenyl)tetrahydro-2H-pyran-4-carboxamide] were, in that order, 727 nM and 108 nM.
With `Cn1ncc(Br)c1-c1ccc(Sc2cccc(C3(C(N)=O)CCOCC3)c2)cc1F` [Example 78, 4-(3-{[4-(4-bromo-1-methyl-1H-pyrazol-5-yl)-3-fluorophenyl]thio}phenyl)tetrahydro-2H-pyran-4-carboxamide], the concentration for half-maximal inhibition (IC50) amounted to 1380 nM in assay [1] and 153 nM in assay [2].
Take `C[C@@H]1C[C@](C#N)(c2cccc(Sc3ccc(-c4ccnn4C)cc3)c2)CCO1` [Example 82, (2R,4S)-2-methyl-4-(3-{[4-(1-methyl-1H-pyrazol-5-yl)phenyl]thio}phenyl)tetrahydro-2H-pyran-4-carbonitrile]: the IC50 in assay [1] was determined as 530 nM; in assay [2], 1200 nM.
In the case of `CCNC(=O)C1(c2cccc(Sc3ccc(-c4ccnn4C)cc3)c2)CCOCC1` [Example 86, N-ethyl-4-(3-{[4-(1-methyl-1H-pyrazol-5-yl)phenyl]thio}phenyl)tetrahydro-2H-pyran-4-carboxamide], the half-inhibitory concentration (IC50) in assay [1] worked out at 565 nM; in assay [2], 324 nM.
On the same counts, the results for `Cn1nccc1-c1ccc(Sc2cccc(C3(C(N)=O)CCOCC3)c2Cl)cc1` [Example 87, 4-(2-chloro-3-{[4-(1-methyl-1H-pyrazol-5-yl)phenyl]thio}phenyl)tetrahydro-2H-pyran-4-carboxamide] are 1010 nM and 1100 nM.
The like results for `Cn1nccc1-c1ccc(Sc2cccc(C3(C(N)=O)CCOCC3)c2)c(C#N)c1` [Example 88, 4-(3-{[2-cyano-4-(1-methyl-1H-pyrazol-5-yl)phenyl]thio}phenyl)tetrahydro-2H-pyran-4-carboxamide] were, in that order, 1170 nM and 3220 nM.
